Assay results as given in US20220409723A1, “NOVEL VACCINE ADJUVANT COMPOSITION INCLUDING BAVACHIN” (KOREA INSTITUTE OF ORIENTAL MEDICINE, priority 2019, published 2022).

Columns and labels:
C57/BL6 mice [1] = assay: OVA-specific IgG antibody titer in mouse sera by ELISA; assay type: in vivo; conditions: mice injected s.c. with bavachin (10 or 100 μg) together with OVA (10 μg) vs OVA alone; sera at 28 and 42 days; FIG. 1
Procedure: (§1) C57/BL6 mice were immunized with a mixture of OVA (10 μg) and bavachin (10 μg) or a mixture of OVA (10 μg) and bavachin (100 μg) by subcutaneous injection once every 1, 3, and 4 weeks. In this regard, those injected with OVA (10 μg) alone was used as a control.
At 28 days and 42 days after the first immunization in Example 2, mouse sera were collected, and the titers of antigen-specific IgG antibodies in the sera were measured by way of ELISA (FIG. 1). At this time, in the ELISA method, an OVA-coated plate was blocked, and then sera of a control group and an experimental group were incubated at various serial dilution rates. Thereafter, horseradish peroxidase-conjugated mouse-IgG and IgG1 antibodies were added, and a substrate was added and allowed to react, followed by measurement with an ELISA reader.

C57/BL6 mice [2] = assay: Percentages of CD4 and CD8 cells in splenocytes by FACS analysis; assay type: in vivo, mouse; conditions: mice injected with bavachin together with OVA vs OVA alone; FIG. 6
Procedure: as §1
(§2) Briefly, at 28 days after the first immunization, lymph nodes and spleens were removed from 5 mice per the treated mouse group (0.5% CMC (CON), OVA, Bavachin […], OVA+Bavachin), and ground to isolate cells from the tissue capsule. The spleens were subjected to hemolysis by treatment with an RBC lysis buffer, and splenocytes were isolated.
Therefore, percentages of CD4 cells and CD8 cells were compared by performing FAGS analysis of the splenocytes (FIG. 6).

C57/BL6 mice [3] = assay: Percentages of effector T cells in lymph node cells by FACS analysis; assay type: in vivo, mouse; conditions: mice injected with bavachin together with OVA vs OVA alone; FIG. 7
Procedure: as §1, §2
Further, percentages of CD44^+CD62L^−CD4 cells and CD44^+CD62L^−CD8 cells, which are effector T cells, were compared by performing FAGS analysis of the lymph node cells (FIG. 7).

[4] = tested on: splenocytes and lymph node cells; assay: Antigen-specific cell proliferation of splenocytes and lymph node cells by MTS; assay type: cell-based, mouse; conditions: cells from mice injected with bavachin together with OVA vs OVA alone; day 28; treated with OVA 48 hours; FIG. 3
Procedure: as §1, §2
(§3) The isolated splenocytes and lymph node cells were dispensed in a 96-well-plate at a density of 1×10^6 cells/well, followed by treated with OVA for 48 hours. Thereafter, cell proliferation was measured by MTS (FIG. 3), and cytokines (IFN-γ, IL-2, IL-4, IL-6, IL-10, and TNF) secreted from the cells were measured by CBA (FIG. 4).

C57/BL6 mice [5] = assay: Serum immunoglobulin isotyping assay (CBA isotyping kit); assay type: in vivo, mouse; conditions: mice injected with bavachin together with OVA vs OVA alone; FIG. 2
Procedure: as §1
Antibody subclasses in the mouse sera collected in Example 3 were stained with CBA (Cytometric Bead Array) isotyping kit and analyzed by FAGS (FIG. 2).

[6] = tested on: splenocytes and lymph node cells; assay: Cytokines secreted from splenocytes and lymph node cells by CBA; assay type: cell-based, mouse; conditions: cells from mice injected with bavachin together with OVA vs OVA alone; day 28; treated with OVA 48 hours; FIG. 4
Procedure: as §1, §2, §3

C57/BL6 mice [7] = assay: Total numbers of splenocytes and lymph node cells; assay type: in vivo, mouse; conditions: mice injected with bavachin together with OVA vs OVA alone; day 28; FIG. 5
Procedure: as §1, §2
The total numbers of the splenocytes and lymph node cells obtained in Example 5 were counted (FIG. 5).

In the case of `CC(C)=CCc1cc2c(cc1O)O[C@H](c1ccc(O)cc1)CC2=O` [bavachin], the OVA-specific antibody titers (C57/BL6 mice [1]) is reported as “significantly increased”, the “percentage of CD4 cells in splenocytes” value (C57/BL6 mice [2]) is reported as “relatively high levels” and the “percentage of CD8 cells in splenocytes” value (C57/BL6 mice [2]) is reported as “relatively high levels”. For the same compound, the “percentages of effector T cells (CD44+CD62L−CD4 and CD44+CD62L−CD8) in lymph node cells” value (C57/BL6 mice [3]) was “relatively high levels”, the “cell proliferation ability of lymph node cells” value [4] was “relatively excellent cell proliferation ability” and the “cell proliferation ability of splenocytes” value [4] was “relatively excellent cell proliferation ability”. For the same compound, the “IgA immunoglobulin level in sera” value (C57/BL6 mice [5]) was “relatively high levels”, the “IgG1 immunoglobulin level in sera” value (C57/BL6 mice [5]) was “relatively high levels” and the “levels of cytokines (IFN-γ, IL-2, IL-4, IL-6, IL-10, and TNF) secreted from lymph node cells” value [6] was “relatively high levels”. For the same compound, the “levels of cytokines (IFN-γ, IL-2, IL-4, IL-6, IL-10, and TNF) secreted from splenocytes” value [6] was “relatively high levels”, the “number of lymph node cells” value (C57/BL6 mice [7]) was “relatively high levels” and the number of splenocytes (C57/BL6 mice [7]) was “no significant difference”.
